Source: USRE31181E, “Means and method for improving natural defenses against caries” (priority 1980, dated 1983)
Where a SMILES comes first, the peptide text is derived from it.

System: oral bacteria
Assay: pH of glucose solution incubated with oral bacteria (salivary sediment) and test substance
Format: cell-based
Settings: for pH rising to (pH rise after the drop) / pH drop to (lowest pH reached): salivary sediment 16.7% (v/v), peptide 3.3 mM; for pH rising to (pH rise after the drop) / pH drop to (lowest pH reached) / pH: glucose 2.8 mM; for pH rising to (pH rise after the drop): measured through the fourth hour; for pH drop to (lowest pH reached): pH starts slightly above 7; for pH: substance 3.3 mM final, 37° C.
Protocol: Experiments were performed in vitro using supernatant saliva. The saliva was obtained from random donors whose salivary secretions were paraffin block stimulated. The saliva donations were pooled before and after sediment removal.
Four sets of three 10×75 mm test tubes were provided with 0.2 ml of 8.4 mM (millimolar) of aqueous glucose solution. Set I was provided with 0.2 ml of pooled supernatant saliva. Set II was provided with 0.2 ml of 9.9 mM of the peptide glycine-glycine-arginine. Set III was provided with 0.2 ml of 9.9 mM arginine. Set IV was provided with 0.2 ml of distilled water. Sequentially 0.2 ml of a 50:50 aqueous suspension of oral bacteria was added to each test tube. The concentration of the peptide in the combined composition was 3.3 mM. The prepared test tubes were kept at 37° C. in a water bath. pH readings were taken at 0 time when the bacteria were added and at 15, 30, 45, 60, 90, 120, 180 and 240 minutes.
The tests were carried out under the same conditions as Sets I-IV. The salivary sediment was present in an amount of 16.7% (v/v), glucose 2.8 mM and the peptide 3.3 mM in the final composition.
Duplicate runs without peptide were run parallel to the others as a double check. […] Measurement continues through the fourth hour.

[1] = time 0 minutes (bacteria added)

| Structure (SMILES) | pH rising to (pH rise after the drop) | pH drop to (lowest pH reached) | pH [1] | pH (time 15 minutes) | pH (time 30 minutes) | pH (time 45 minutes) | pH (time 60 minutes) | pH (time 90 minutes) | pH (time 120 minutes) | pH (time 180 minutes) | pH (time 240 minutes) | effectiveness as pH rise factor (synthesized peptide) |
| --- | --- | --- | --- | --- | --- | --- | --- | --- | --- | --- | --- | --- |
| N=C(N)NCCC[C@H](N)C(=O)O.NCC(=O)O.NCC(=O)O [Gly--Gly--Arg, glycine-glycine-arginine] | 7.5 | 5.5 | 7.4 | 6.8 | 6.6 | 6.4 | 6.6 | 6.6 | 6.7 | 7.2 | 7.6 |  |
| N=C(N)NCCC[C@H](N)C(=O)O [Set III, arginine, reference compound] |  |  | 7.3 | 5.8 | 5.4 | 5.2 | 4.9 | 5.0 | 5.0 | 5.3 | 5.8 |  |
| N=C(N)NCCC[C@H](NC(=O)[C@H](CCCCN)NC(=O)CNC(=O)CN)C(=O)O [Gly--Gly--Lys--Arg, H-glycine-glycine-lysine-arginine-OH] (H-GGKR-OH) | 8.4 | 6.4 |  |  |  |  |  |  |  |  |  | proven effective |
